Measurements from ChEMBL document CHEMBL1201862, “PubChem BioAssay data set” (2004).
Calls of active or inactive are those of the source.

Columns and labels:
[1] = target: T1, Corticotropin-releasing factor receptor 2/Corticotropin-releasing factor-binding protein (Homo sapiens, UniProt P24387+Q13324); experiment: Dose Response confirmation of uHTS hits for small molecule antagonists of the CRF-binding protein and CRF-R2 receptor complex.; format: functional; details: read-out: IC50_Mean
T1 sequence (Q13324 whole entry): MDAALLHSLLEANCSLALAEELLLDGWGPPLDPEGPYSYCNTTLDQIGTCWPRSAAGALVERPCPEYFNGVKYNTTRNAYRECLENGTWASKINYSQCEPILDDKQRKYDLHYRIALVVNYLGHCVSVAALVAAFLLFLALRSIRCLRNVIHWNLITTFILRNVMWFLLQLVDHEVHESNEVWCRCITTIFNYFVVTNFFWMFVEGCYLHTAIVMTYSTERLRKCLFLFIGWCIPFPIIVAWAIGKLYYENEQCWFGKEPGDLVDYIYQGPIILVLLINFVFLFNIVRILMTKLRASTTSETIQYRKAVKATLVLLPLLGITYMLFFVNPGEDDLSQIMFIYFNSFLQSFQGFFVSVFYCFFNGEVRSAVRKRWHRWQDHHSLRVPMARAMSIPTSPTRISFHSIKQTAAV
T1 sequence (P24387 whole entry): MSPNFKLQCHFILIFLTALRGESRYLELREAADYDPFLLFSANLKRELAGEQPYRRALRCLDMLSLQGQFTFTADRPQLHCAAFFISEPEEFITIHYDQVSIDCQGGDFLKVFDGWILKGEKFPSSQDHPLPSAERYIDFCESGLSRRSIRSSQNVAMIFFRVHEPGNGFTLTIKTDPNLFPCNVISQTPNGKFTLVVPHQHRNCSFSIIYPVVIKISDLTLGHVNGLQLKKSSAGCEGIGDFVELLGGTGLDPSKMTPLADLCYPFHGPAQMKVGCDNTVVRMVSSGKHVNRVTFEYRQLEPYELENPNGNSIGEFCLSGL

[2] = target: T1, Corticotropin-releasing factor receptor 2/Corticotropin-releasing factor-binding protein; experiment: activators of CRF receptor 2 with binding protein – uHTS hits, confirmation (AID 602473); format: functional; details: read-out: EC50_Mean
[3] = tested on: INS1; experiment: beta cell apoptosis inhibitors, cytokine rescue, dose response, luminescence, retest (AID 449756); format: functional, cell-based; details: Rattus norvegicus;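 also: cell death triggered by IL-1 beta plus TNF-alpha plus IFN-gamma mixture; protective hits raise ATP signal compared with cytokine alone wells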
[4] = target: T2, Calpain-2 catalytic subunit (Sus scrofa, UniProt P43367); experiment: pig calpain II inhibitor potency, dose response, biochemical, fluorogenic peptide substrate (AID 1420); format: functional
T2 sequence (P43367 whole entry): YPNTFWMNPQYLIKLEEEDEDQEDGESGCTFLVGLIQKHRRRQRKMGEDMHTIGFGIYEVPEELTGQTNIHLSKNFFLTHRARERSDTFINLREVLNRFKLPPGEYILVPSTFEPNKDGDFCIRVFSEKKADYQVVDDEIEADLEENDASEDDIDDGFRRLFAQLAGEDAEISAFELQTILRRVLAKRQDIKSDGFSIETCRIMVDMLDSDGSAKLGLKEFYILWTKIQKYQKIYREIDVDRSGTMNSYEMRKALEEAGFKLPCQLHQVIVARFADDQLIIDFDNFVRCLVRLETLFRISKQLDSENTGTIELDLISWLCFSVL

[5] = target: T3, Heat shock factor protein 1 (Mus musculus, UniProt P38532); experiment: inhibition of MG132-induced HSE-luciferase signal, confirmation, cell-based, NIH3T3, luminescence, dose retest (AID 2382); format: functional;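 also: NIH3T3 fibroblasts with HSF1-driven luciferase reporter stressed by proteasome inhibitor MG132; luminescence from HSF1-driven luciferase expression after 8 hours of MG132 stress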
T3 sequence (P38532 whole entry): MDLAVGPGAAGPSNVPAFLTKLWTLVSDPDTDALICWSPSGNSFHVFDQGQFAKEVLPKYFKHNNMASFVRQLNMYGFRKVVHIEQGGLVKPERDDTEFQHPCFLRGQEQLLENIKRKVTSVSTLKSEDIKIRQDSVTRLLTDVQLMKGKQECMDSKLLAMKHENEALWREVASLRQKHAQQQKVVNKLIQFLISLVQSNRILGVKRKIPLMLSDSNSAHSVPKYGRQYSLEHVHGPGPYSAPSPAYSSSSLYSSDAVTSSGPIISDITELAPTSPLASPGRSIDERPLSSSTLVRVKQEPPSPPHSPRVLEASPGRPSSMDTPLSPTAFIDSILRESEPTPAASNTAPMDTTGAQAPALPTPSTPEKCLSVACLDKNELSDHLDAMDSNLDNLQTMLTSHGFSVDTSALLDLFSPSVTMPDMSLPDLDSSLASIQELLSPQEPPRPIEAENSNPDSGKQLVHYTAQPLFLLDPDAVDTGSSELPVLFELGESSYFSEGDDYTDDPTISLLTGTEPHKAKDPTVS

[6] = Shn3 3'UTR reporter inhibitors, dose response, cell-based, Clone20 osteoblasts, firefly luciferase, cherry-picked (AID 624132); format: functional;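 also: firefly luciferase luminescence from reporter carrying the Shn3 3'UTR in osteoblasts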
[7] = HepG2 cell cytotoxicity, dose response, cytotoxicity control for Shn3 inhibitor project, CellTiter-Glo, cherry-picked (AID 624134); format: functional, cell-based
[8] = control 3'UTR Renilla luciferase suppression, dose response, counter-screen for Shn3 inhibitor project, cell-based, Clone20-Shn3RL, cherry-picked (AID 624133); format: functional
[9] = P. falciparum Dd2 growth inhibitors, dose response, SYBR Green, cherry-picked samples (AID 1159567); format: functional, cell-based
[10] = tested on: Streptococcus sp. 'group A'; experiment: growth inhibition of control SK(-) GAS strain, dose response, counter-screen for streptokinase expression inhibitor project, luminescence, kanamycin, BacTiterGlo, confirmation (AID 1900); format: functional, organism-based
[11] = target: T4, Streptokinase A (Streptococcus pyogenes serotype M1, UniProt P10520); experiment: S. pyogenes streptokinase expression inhibitors, potency, dose response, plasminogen activation absorbance, OD405 (AID 1914); format: functional, Streptococcus pyogenes M1 GAS;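 also: secreted streptokinase activity via plasminogen activation per viability signal from cell pellet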
T4 sequence (P10520 whole entry): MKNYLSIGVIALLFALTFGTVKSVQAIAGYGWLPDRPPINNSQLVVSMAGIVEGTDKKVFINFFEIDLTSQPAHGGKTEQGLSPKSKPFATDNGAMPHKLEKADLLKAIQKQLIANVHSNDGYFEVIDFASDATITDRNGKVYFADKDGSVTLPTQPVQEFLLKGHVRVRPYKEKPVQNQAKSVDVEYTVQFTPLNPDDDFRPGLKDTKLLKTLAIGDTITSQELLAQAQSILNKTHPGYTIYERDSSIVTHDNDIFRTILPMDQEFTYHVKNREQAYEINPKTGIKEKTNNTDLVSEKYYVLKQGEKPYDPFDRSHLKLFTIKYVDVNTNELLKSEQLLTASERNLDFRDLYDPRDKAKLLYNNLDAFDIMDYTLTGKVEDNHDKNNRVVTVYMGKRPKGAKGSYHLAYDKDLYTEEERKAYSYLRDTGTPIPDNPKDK

[12] = tested on: Streptococcus; experiment: Group A Streptococcus viability loss, dose response, counter-screen for streptokinase expression inhibitor project, luminescence, BacTiterGlo (AID 1915); format: functional, organism-based;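 also: potency for reduction of bacterial viability or growth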

Compound	IC50 [1]	EC50 [2]	IC50 [4]	further results
N#CCc1ccc(NS(=O)(=O)c2cccs2)cc1	> 47.1 µM (inactive)	> 53 µM (inactive)		
C/C(=N\NC(N)=S)c1ccncc1				AC50 [3]: > 260 µM (inactive)
Nn1c(SCC(=O)NC(=O)Nc2ccc3c(c2)OCCO3)nnc1C1CC1			9.49 µM (not active)	
Cc1ccccc1N=C(S)Nc1cccc2cnccc12				AC50 [3]: > 260 µM (inactive)
Cc1ccc(C)c(-c2csc(NC(=O)C3=COCCO3)n2)c1				AC50 [3]: 7.19 µM (active)
CCCN(CCC)C(=O)CC(c1ccccc1)c1cc(Br)ccc1O (stereo not given)			16 µM (not active)	
CC(C)CCNC(=O)C12CN(Cc3ccccc3)CC1C(c1ccc([N+](=O)[O-])cc1)=NO2 (stereo not given)			7.38 µM (not active)	
Cc1cccc2c(C(=O)N3CCN(c4ccccn4)CC3)cc(-c3cccc(Br)c3)nc12				EC50 [5]: > 195 µM (not active); AC50 [3]: 3.73 µM (active); AC50 [6]: 6.48 µM (active); AC50 [7]: 45.4 µM (active)
Cc1ccc(CCNC(=O)C2CCCN(S(=O)(=O)N3CC(C)CC(C)C3)C2)cc1 (stereo not given)	> 47.1 µM (inactive)	> 53 µM (inactive)		
CC1C(=O)N(Cc2cn(CCC3OCCCO3)nn2)CCS(=O)(=O)N1Cc1ccc(-c2ccc(Cl)c(Cl)c2)cc1 (stereo not given)				AC50 [6]: 3.39 µM (active); AC50 [7]: > 70 µM (inactive); AC50 [8]: 2.7 µM (active)
O=C(OCCN1C(=O)c2ccccc2C1=O)c1ccc(S(=O)(=O)N2CCCCCC2)cc1			> 50 µM (not active)	
CC1CCCC(C)N1C(=O)COC(=O)COc1ccc(C#N)cc1 (stereo not given)	> 47.1 µM (inactive)	> 53 µM (inactive)		
CC(C)(C)N(Cc1ccccc1)C(=O)CCc1ccccc1			32.5 µM (not active)	
CC(C)(C)c1ccc(OCCNC(=S)Nc2ccccc2)cc1			8.08 µM (not active)	
O=C(NNC(=O)c1cccc(S(=O)(=O)N2CCc3ccccc32)c1)c1ccccc1				AC50 [6]: 1.52 µM (active); AC50 [7]: 46.2 µM (active); AC50 [8]: 3.89 µM (active)
CN(C)c1ccc2c(c1)[C@@H]1C[C@@H](CC(=O)NCc3cc(F)ccc3F)O[C@@H](CO)[C@@H]1O2				AC50 [9]: 13.3 µM (active)
C[C@H](NC(=O)c1ncn2c1c(O)nc1ccc(Br)cc12)c1ccccc1				AC50 [6]: 8.76 µM (active); AC50 [7]: 9.3 µM (active); AC50 [8]: 16.2 µM (active)
CC(C)Nc1nnc(Sc2ccc(Cl)cc2[N+](=O)[O-])s1			4.91 µM (not active)	EC50 [5]: > 195 µM (not active)
Cc1cc(C)c(S(=O)(=O)Nc2ccc3c(c2)CCC3)c(C)c1			11.4 µM (not active)	
COC(=O)C1=C(C)N(C)C(C)=C(C(=O)OC)C1c1ccc(F)c(Br)c1	> 47.1 µM (inactive)	> 53 µM (inactive)		
Cc1ccc(CN(C)C(=O)CCc2c[nH]c3ccccc23)o1	> 47.1 µM (inactive)	> 53 µM (inactive)		
C[C@@H]1CN([C@@H](C)CO)C(=O)Cc2cc(NC(=O)NC3CCCCC3)ccc2O[C@H]1CN(C)C(=O)Nc1cccc2ccccc12				AC50 [9]: 5.11 µM (active)
C[C@@H]1CN([C@H](C)CO)C(=O)c2cccc(NC(=O)Nc3cccc4ccccc34)c2O[C@H]1CN(C)C(=O)NC1CCCCC1				AC50 [9]: 4.98 µM (active)
Cc1c(N2C(=O)C3C4C=CC(C5CC45)C3C2=O)c(=O)n(-c2ccccc2)n1C (stereo not given)	> 47.1 µM (inactive)	> 53 µM (inactive)		
COc1ccc(C)cc1S(=O)(=O)N1CCN(S(=O)(=O)c2cc(C)ccc2OC)CC1	> 47.1 µM (inactive)	> 53 µM (inactive)		
CC(=O)Nc1ccc(S(=O)(=O)N2CCN(c3nnnn3-c3ccccc3)CC2)cc1	> 47.1 µM (inactive)	> 53 µM (inactive)		
O=C1CC(c2ccccc2)CN1S(=O)(=O)c1ccccc1 (stereo not given)	> 47.1 µM (inactive)	> 53 µM (inactive)		
COc1cccc(NC(S)=NN=C2CCCCCC2)c1			> 50 µM (not active)	EC50 [10]: 17.5 µM (active); EC50 [11]: > 150 µM (not active); EC50 [12]: > 150 µM (not active)
